Converted amounts (≈) assume the structure as drawn. Where a SMILES comes first, the peptide text is derived from it. Bridges are numbered along the chain shown (N, C = ends). Roman numbers before positions name the chains, in order. [ ]: non-standard residue; d: D form. Tle = CC(C)(C)[C@H](N)C(=O)O; NMeV = CN[C@H](C(=O)O)C(C)C; dDab = NCC[C@@H](N)C(=O)O; hSer = N[C@@H](CCO)C(=O)O; Orn = NCCC[C@H](N)C(=O)O; Dab = NCC[C@H](N)C(=O)O; Dap = NC[C@H](N)C(=O)O
Legend:
Type in all cases: cell-based
[1] = tested on: Klebsiella pneumoniae SSI #3010; details: SSI #3010
Procedure: (§1) The in vitro antimicrobial activities of the peptides were determined in 96-well plates (Greiner, polystyrene) by the standard CLSI broth microdilution method (Clinical and Laboratory Standards Institute 2014. Performance standards for antimicrobial susceptibility testing, 24th informational supplement. Approved standard CLSI M100-S24; Clinical and Laboratory Standards Institute, Wayne, Pa.). The following microorganisms were used to determine antibiotic activity of the peptides: Escherichia coli ATCC 25922, Klebsiella pneumoniae SSI #3010^a), Acinetobacter baumannii DSM 30008, Pseudomonas aeruginosa ATCC 27853 and the clinical isolates Escherichia coli 926415^b), Klebsiella pneumoniae 968733^b), Acinetobacter baumannii 872842^b), Enterobacter cloacae 848840^b) and Escherichia coli MCR-1 Af45^c). Before preparation of inocula, Escherichia coli MCR-1 Af45 was subcultured on Mueller-Hinton II (MH-cation adjusted) agar containing 2 μg/mL colistin. ^a) Obtained from Statens Serum Institut (SSI), Copenhagen, Denmark^b) Obtained from International Health Management Associates, Inc. (IHMA Europe Sàrl), Epalinges, Switzerland^c) Obtained from Prof. Patrice Nordmann, University of Fribourg, Fribourg, Switzerland
(§2) Inocula of the microorganisms were diluted into Mueller-Hinton II (MH-cation adjusted) broth and compared with a 0.5 McFarland standard to give appr. 10^6 colony forming units (CFU)/mL. Aliquots (90 μL) of inoculum were added to 10 μL of MH-II broth+P-80 (Polysorbate 80, 0.002% final concentration, v/v) containing the peptide in serial two-fold dilutions. Antimicrobial activities of the peptides were expressed as the minimal inhibitory concentration (MIC) in μg/mL at which no visible growth was observed after 18-20 hours of incubation at 35° C.

[2] = tested on: Escherichia coli ATCC 25922; details: ATCC 25922
Procedure: as §1, §2

[3] = tested on: Pseudomonas aeruginosa ATCC 27853; details: ATCC 27853
Procedure: as §1, §2

[4] = tested on: Acinetobacter baumannii DSM 30008; details: DSM 30008
Procedure: as §1, §2

[5] = tested on: human red blood cells (hRBC); assay: Hemolysis; details: red cells of human, 1 h, 200
Procedure: The peptides were tested for their hemolytic activity against human red blood cells (hRBC). Fresh hRBC were washed four times with phosphate buffered saline (PBS) and centrifuged for 10 min at 3000×g. Compounds (200 μg/mL) were incubated with 20% hRBC (v/v) for 1 h at 37° C. and shaking at 300 rpm. A value of 0% and 100% cell lysis, respectively, was determined by incubation of hRBC in the presence of PBS containing 10% water and 2% Triton X-100 in H2O, respectively. The samples were centrifuged, the supernatants were ˜7.5-fold diluted in PBS buffer and the optical densities (OD) were measured at 540 nm and blank corrected. The 100% lysis value (OD540Triton X-100) gave an OD540 of approximately 0.5-1.0.
Percent hemolysis was calculated as follows: (OD540peptide/OD540Triton X-100)×100%.

Compound	MIC [1]	MIC [2]	MIC [3]	MIC [4]	Hemolysis at 200 μg/mL [5]
CC(=O)N[C@@H](CCN)C(=O)N[C@H](C(=O)N[C@@H](CN)C(=O)N[C@@H](Cc1ccc(O)cc1)C(=O)N[C@H]1CSSC[C@@H](C(=O)N[C@H](C(N)=O)C(C)(C)C)NC(=O)[C@H](Cc2c[nH]c3ccccc23)NC(=O)[C@H](CO)NC(=O)[C@@H](CCN)NC(=O)[C@H](CCC(=O)N[C@@H](CCN)C(=O)N[C@H](C(=O)N[C@@H](CN)C(=O)N[C@H]2CCNC(=O)[C@H]([C@@H](C)O)NC(=O)[C@H](CCN)NC(=O)[C@H](CCN)NC(=O)[C@H](CC(C)C)NC(=O)[C@@H](CC(C)C)NC(=O)[C@H](CCN)NC2=O)[C@@H](C)O)NC1=O)C(C)C [Ex. 13] (I: Ac-[Dab]V[Dap]YCE[dDab]SWC[Tle]-NH2 / II: [Dab]T[Dap][Dab][Dab][dL]L[Dab][Dab]T; disulfide I:5-I:10; amide I:6-II:N; lactam II:4-II:C)	0.125 µg/mL (≈ 0.0538 µM)	0.125 µg/mL (≈ 0.0538 µM)	0.125 µg/mL (≈ 0.0538 µM)	0.125 µg/mL (≈ 0.0538 µM)	<1%
CC(=O)N[C@@H](CCN)C(=O)N[C@H](C(=O)N[C@@H](CN)C(=O)N[C@@H](Cc1ccc(O)cc1)C(=O)N[C@H]1CSSC[C@@H](C(=O)N[C@H](C(N)=O)C(C)(C)C)NC(=O)[C@H](Cc2c[nH]c3ccccc23)NC(=O)[C@H](CCN)NC(=O)[C@@H](CCN)NC(=O)[C@H](CCC(=O)N[C@@H](CCN)C(=O)N[C@H](C(=O)N[C@@H](CN)C(=O)N[C@H]2CCNC(=O)[C@H]([C@@H](C)O)NC(=O)[C@H](CCN)NC(=O)[C@H](CCN)NC(=O)[C@H](CC(C)C)NC(=O)[C@@H](CC(C)C)NC(=O)[C@H](CCN)NC2=O)[C@@H](C)O)NC1=O)C(C)C [Ex. 14] (I: Ac-[Dab]V[Dap]YCE[dDab][Dab]WC[Tle]-NH2 / II: [Dab]T[Dap][Dab][Dab][dL]L[Dab][Dab]T; disulfide I:5-I:10; amide I:6-II:N; lactam II:4-II:C)	0.5 µg/mL (≈ 0.214 µM)	0.25 µg/mL (≈ 0.107 µM)	0.25 µg/mL (≈ 0.107 µM)	0.5 µg/mL (≈ 0.214 µM)	<1%
CC(=O)N[C@H](C(=O)N[C@H]1CCCNC(=O)[C@@H](CC(N)=O)NC(=O)[C@H](C(C)(C)C)NC(=O)[C@H](CO)NC(=O)[C@H](Cc2c[nH]c3ccccc23)NC(=O)[C@H](CCO)NC(=O)[C@@H](CCN)NC(=O)[C@H](CCC(=O)N[C@@H](CCN)C(=O)N[C@H](C(=O)N[C@@H](CN)C(=O)N[C@H]2CCNC(=O)[C@H]([C@@H](C)O)NC(=O)[C@H](CCN)NC(=O)[C@H](CCN)NC(=O)[C@H](CC(C)C)NC(=O)[C@@H](CC(C)C)NC(=O)[C@H](CCN)NC2=O)[C@@H](C)O)NC(=O)[C@H](CO)NC(=O)[C@H](Cc2ccc(O)cc2)NC1=O)C(C)C [Ex. 19] (I: Ac-V[Orn]YSE[dDab][hSer]WS[Tle][dN] / II: [Dab]T[Dap][Dab][Dab][dL]L[Dab][Dab]T; lactam I:2-I:C, II:4-II:C; amide I:5-II:N)	0.125 µg/mL (≈ 0.0536 µM)	0.125 µg/mL (≈ 0.0536 µM)	0.25 µg/mL (≈ 0.107 µM)	0.125 µg/mL (≈ 0.0536 µM)	<1%
CC(=O)N[C@H](C(=O)N[C@H]1CCCNC(=O)[C@@H](CCCCN)NC(=O)[C@H](C(C)(C)C)NC(=O)[C@H](CO)NC(=O)[C@H](Cc2c[nH]c3ccccc23)NC(=O)[C@H](CCO)NC(=O)[C@@H](CCN)NC(=O)[C@H](CCC(=O)N[C@@H](CCN)C(=O)N[C@H](C(=O)N[C@@H](CN)C(=O)N[C@H]2CCNC(=O)[C@H]([C@@H](C)O)NC(=O)[C@H](CCN)NC(=O)[C@H](CCN)NC(=O)[C@H](CC(C)C)NC(=O)[C@@H](CC(C)C)NC(=O)[C@H](CCN)NC2=O)[C@@H](C)O)NC(=O)[C@H](CO)NC(=O)[C@H](Cc2ccc(O)cc2)NC1=O)C(C)C [Ex. 30] (I: Ac-V[Orn]YSE[dDab][hSer]WS[Tle][dK] / II: [Dab]T[Dap][Dab][Dab][dL]L[Dab][Dab]T; lactam I:2-I:C, II:4-II:C; amide I:5-II:N)	0.125 µg/mL (≈ 0.0532 µM)	0.0625 µg/mL (≈ 0.0266 µM)	0.25 µg/mL (≈ 0.106 µM)	0.125 µg/mL (≈ 0.0532 µM)	<1%
CC(C)C[C@@H]1NC(=O)[C@@H](CC(C)C)NC(=O)[C@H](CCN)NC(=O)[C@@H](NC(=O)[C@H](CCN)NC(=O)[C@@H](NC(=O)[C@H](CCN)NC(=O)CC[C@@H]2NC(=O)[C@H](CCN)NC(=O)[C@H](Cc3ccc(O)cc3)NC(=O)[C@@H](NC(=O)[C@@H](N)C(C)C)CCC(=O)NCC[C@@H](C(=O)N[C@@H](CO)C(=O)O)NC(=O)[C@H](C(C)(C)C)NC(=O)[C@H](CO)NC(=O)[C@H](Cc3c[nH]c4ccccc34)NC(=O)[C@H]([C@@H](C)O)NC(=O)[C@@H](CCN)NC2=O)[C@@H](C)O)CCNC(=O)[C@H]([C@@H](C)O)NC(=O)[C@H](CCN)NC(=O)[C@H](CCN)NC1=O [Ex. 56] (I: H-VEY[Dab]E[dDab]TWS[Tle][Dab]S-OH / II: [Dab]T[Dab][Dab][Dab][dL]L[Dab][Dab]T; lactam I:2-I:11, II:4-II:C; amide I:5-II:N)	1 µg/mL (≈ 0.415 µM)	0.5 µg/mL (≈ 0.208 µM)	0.5 µg/mL (≈ 0.208 µM)	1 µg/mL (≈ 0.415 µM)	<1%
CN[C@H](C(=O)N[C@@H](CN)C(=O)N[C@@H](Cc1ccc(O)cc1)C(=O)N[C@H]1CSSC[C@@H](C(=O)N[C@H](C(=O)N[C@@H](C)C(=O)N[C@@H](CO)C(N)=O)C(C)(C)C)NC(=O)[C@H](Cc2c[nH]c3ccccc23)NC(=O)[C@H]([C@@H](C)O)NC(=O)[C@@H](CCN)NC(=O)[C@H](CCC(=O)N[C@@H](CCN)C(=O)N[C@H](C(=O)N[C@@H](CCN)C(=O)N[C@H]2CCNC(=O)[C@H]([C@@H](C)O)NC(=O)[C@H](CCN)NC(=O)[C@H](CCN)NC(=O)[C@H](CC(C)C)NC(=O)[C@@H](CC(C)C)NC(=O)[C@H](CCN)NC2=O)[C@@H](C)O)NC1=O)C(C)C [Ex. 180] (I: H-[NMeV][Dap]YCE[dDab]TWC[Tle]AS-NH2 / II: [Dab]T[Dab][Dab][Dab][dL]L[Dab][Dab]T; disulfide I:4-I:9; amide I:5-II:N; lactam II:4-II:C)	0.5 µg/mL (≈ 0.21 µM)	0.125 µg/mL (≈ 0.0525 µM)	0.125 µg/mL (≈ 0.0525 µM)	0.25 µg/mL (≈ 0.105 µM)	<1%
CN[C@H](C(=O)N[C@H](C(=O)N[C@@H](Cc1ccc(O)cc1)C(=O)N[C@H]1CSSC[C@@H](C(=O)N[C@H](C(=O)N[C@@H](C)C(=O)N[C@@H](CO)C(N)=O)C(C)C)NC(=O)[C@H](Cc2c[nH]c3ccccc23)NC(=O)[C@H](CCO)NC(=O)[C@@H](CCN)NC(=O)[C@H](CCC(=O)N[C@@H](CCN)C(=O)N[C@H](C(=O)N[C@@H](CCN)C(=O)N[C@H]2CCNC(=O)[C@H]([C@@H](C)O)NC(=O)[C@H](CCN)NC(=O)[C@H](CCN)NC(=O)[C@H](CC(C)C)NC(=O)[C@@H](CC(C)C)NC(=O)[C@H](CCN)NC2=O)[C@@H](C)O)NC1=O)[C@@H](C)O)C(C)C [Ex. 183] (I: H-[NMeV]TYCE[dDab][hSer]WCVAS-NH2 / II: [Dab]T[Dab][Dab][Dab][dL]L[Dab][Dab]T; disulfide I:4-I:9; amide I:5-II:N; lactam II:4-II:C)	0.25 µg/mL (≈ 0.105 µM)	0.125 µg/mL (≈ 0.0524 µM)	0.125 µg/mL (≈ 0.0524 µM)	0.25 µg/mL (≈ 0.105 µM)	<1%
CC(=O)N[C@H](C(=O)N[C@H](C(=O)N[C@@H](Cc1ccc(O)cc1)C(=O)N[C@H]1CC(=O)NCC[C@@H](C(=O)N[C@H](C(=O)N[C@@H](C)C(=O)N[C@@H](CO)C(N)=O)C(C)C)NC(=O)[C@H](Cc2c[nH]c3ccccc23)NC(=O)[C@H](CCO)NC(=O)[C@@H](CCN)NC(=O)[C@H](CCC(=O)N[C@@H](CCN)C(=O)N[C@H](C(=O)N[C@@H](CCN)C(=O)N[C@H]2CCNC(=O)[C@H]([C@@H](C)O)NC(=O)[C@H](CCN)NC(=O)[C@H](CCN)NC(=O)[C@H](CC(C)C)NC(=O)[C@@H](CC(C)C)NC(=O)[C@H](CCN)NC2=O)[C@@H](C)O)NC1=O)[C@@H](C)O)C(C)C [Ex. 187] (I: Ac-VTYDE[dDab][hSer]W[Dab]VAS-NH2 / II: [Dab]T[Dab][Dab][Dab][dL]L[Dab][Dab]T; lactam I:4-I:9, II:4-II:C; amide I:5-II:N)	0.25 µg/mL (≈ 0.104 µM)	0.125 µg/mL (≈ 0.052 µM)	0.5 µg/mL (≈ 0.208 µM)	0.5 µg/mL (≈ 0.208 µM)	<1%

— patent publication US11629171B2, “Beta-hairpin peptidomimetics” (POLYPHOR AG, priority 2017, dated 2023)
